This note sets out measurements from ChEMBL document CHEMBL1141499, “Imidazopyridines: a novel class of hNav1.7 channel blockers” (Bioorg Med Chem Lett, 2008).

Data set [1] is described as follows: Bioavailability in Sprague-Dawley rat at 3.0 mg/kg, po. The settings on record: in vivo. The class given is ADME, organism-based.
Data set [2] in a line: Plasma clearance in Sprague-Dawley rat at 1.0 mg/kg, iv or 3.0 mg/kg, po. The class given is ADME, organism-based.

In data set [1], `C[C@@H](c1ccccc1)n1c(CNC(=O)[C@@H](Cc2ccccc2C(F)(F)F)NC(=O)OC(C)(C)C)nc2cccnc21` came in with a bioavailability of 36%. This compound also gave a clearance in data set [2] of 21 mL/min/kg.
For `CC(C)(C)OC(=O)N[C@H](Cc1ccccc1C(F)(F)F)C(=O)NCc1nc2cccnc2n1C(C)(C)C`, in that order: 31% and 36 mL/min/kg.
The compound `O=C(NCc1nc2cccnc2n1C1(c2ccccc2)CC1)[C@@H](Cc1c(F)ccc(F)c1F)NC(=O)C1(C(F)(F)F)CC1` had a bioavailability in data set [1] of 85%. In data set [2], the clearance is 6.6 mL/min/kg.
For `CC(C)(C)OC(=O)N[C@H](Cc1ccccc1C(F)(F)F)C(=O)NCc1nc2cccnc2n1Cc1ccccc1`, in that order: 41% and 15 mL/min/kg.
Regarding `CC(C)(C)Cn1c(CNC(=O)[C@@H](Cc2ccccc2C(F)(F)F)NC(=O)OC(C)(C)C)nc2cccnc21`, the bioavailability in data set [1] was found to be 17%. The compound also returned a clearance in data set [2] of 64 mL/min/kg.
In the same order, the values of `CC(C)(C)OC(=O)N[C@H](Cc1ccccc1C(F)(F)F)C(=O)NCc1nc2cccnc2n1CC1CC1` are 25% and 114 mL/min/kg.
In the same order, the values of `O=C(NCc1nc2cccnc2n1C1(c2ccccc2)CC1)[C@@H](Cc1c(F)cccc1F)NC(=O)C1(C(F)(F)F)CC1` are 54% and 4.2 mL/min/kg.
For `CC(C)(C)OC(=O)N[C@H](Cc1ccccc1C(F)(F)F)C(=O)NCc1nc2cccnc2n1CC(F)(F)C(F)(F)F`, in that order: 10% and 87 mL/min/kg.
`O=C(NCc1nc2cccnc2n1C1(c2ccccc2)CC1)[C@@H](Cc1ccccc1Cl)NC(=O)C1(C(F)(F)F)CC1` registered a bioavailability in data set [1] of 78%. In data set [2], this compound showed a clearance of 9.3 mL/min/kg.
In the same order, the values of `CC(C)(C)OC(=O)N[C@H](Cc1ccccc1C(F)(F)F)C(=O)NCc1nc2cccnc2n1C1(c2ccccc2)CC1` are 44% and 3 mL/min/kg.
In the same order, the values of `CC(C)(C)OC(=O)N[C@H](Cc1ccccc1F)C(=O)NCc1nc2cccnc2n1C1(c2ccccc2)CC1` are 47% and 7.5 mL/min/kg.
For `CC(C)(C)OC(=O)N[C@H](Cc1ccccc1C(F)(F)F)C(=O)NCc1nc2cccnc2n1CC(F)(F)F`, the bioavailability in data set [1] stood at 7%. Moreover, the clearance in data set [2] stood at 113 mL/min/kg.
In the same order, the values of `C[C@H](c1ccccc1)n1c(CNC(=O)[C@@H](Cc2ccccc2C(F)(F)F)NC(=O)OC(C)(C)C)nc2cccnc21` are 57% and 22 mL/min/kg.
